Key:
[1] = biological target: 5-hydroxytryptamine receptor 7 (Homo sapiens) (UniProt P34969); assay: Inhibition of 5HT7 (unknown origin) at 10 uM relative to control
[2] = biological target: Tyrosine-protein kinase BAZ1B (Homo sapiens) (UniProt Q9UIG0); conditions: dose 10.0 µM
[3] = biological target: Bromodomain adjacent to zinc finger domain protein 1A (Homo sapiens) (UniProt Q9NRL2); conditions: dose 10.0 µM
[4] = biological target: T1, Bromodomain and PHD finger-containing protein 3 (Homo sapiens) (UniProt Q9ULD4); assay: Binding affinity to BRPF3 (unknown origin) assessed as change in entropy TdeltaS at 12 uM by Isothermal titration calorimetry
T1 sequence (whole entry): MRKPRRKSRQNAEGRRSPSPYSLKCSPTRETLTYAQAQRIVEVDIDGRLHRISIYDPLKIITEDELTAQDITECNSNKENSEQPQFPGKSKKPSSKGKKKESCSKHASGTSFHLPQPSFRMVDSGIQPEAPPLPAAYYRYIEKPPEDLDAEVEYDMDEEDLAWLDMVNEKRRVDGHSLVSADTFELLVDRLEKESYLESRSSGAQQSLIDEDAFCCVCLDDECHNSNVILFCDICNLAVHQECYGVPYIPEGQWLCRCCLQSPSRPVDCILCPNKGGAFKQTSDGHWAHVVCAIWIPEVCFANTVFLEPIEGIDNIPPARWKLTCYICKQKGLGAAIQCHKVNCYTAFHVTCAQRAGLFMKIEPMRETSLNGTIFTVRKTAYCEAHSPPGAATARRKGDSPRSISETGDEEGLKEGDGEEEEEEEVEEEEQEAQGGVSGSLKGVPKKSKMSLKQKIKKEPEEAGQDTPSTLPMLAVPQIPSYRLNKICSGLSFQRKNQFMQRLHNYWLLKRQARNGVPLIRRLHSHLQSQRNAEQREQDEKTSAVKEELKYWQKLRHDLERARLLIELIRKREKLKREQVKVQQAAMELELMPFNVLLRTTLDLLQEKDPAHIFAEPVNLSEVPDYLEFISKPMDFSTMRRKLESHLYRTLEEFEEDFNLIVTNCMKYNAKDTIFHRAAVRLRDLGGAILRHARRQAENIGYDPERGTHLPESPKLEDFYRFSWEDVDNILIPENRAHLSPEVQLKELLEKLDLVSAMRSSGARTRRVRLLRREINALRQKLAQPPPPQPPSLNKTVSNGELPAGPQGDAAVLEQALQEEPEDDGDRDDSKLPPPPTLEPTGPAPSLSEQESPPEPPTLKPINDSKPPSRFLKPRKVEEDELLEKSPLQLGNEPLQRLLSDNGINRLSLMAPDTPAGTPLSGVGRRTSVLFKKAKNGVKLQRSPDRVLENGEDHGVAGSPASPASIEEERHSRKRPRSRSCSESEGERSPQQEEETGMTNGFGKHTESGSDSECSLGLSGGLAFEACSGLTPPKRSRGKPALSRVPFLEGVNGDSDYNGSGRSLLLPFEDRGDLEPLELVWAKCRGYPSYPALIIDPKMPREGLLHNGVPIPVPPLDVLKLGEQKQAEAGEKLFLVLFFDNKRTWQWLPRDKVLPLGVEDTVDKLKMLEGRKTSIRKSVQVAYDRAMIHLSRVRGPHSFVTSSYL

[5] = biological target: Histone-lysine N-methyltransferase 2A (Homo sapiens) (UniProt Q03164); conditions: dose 10.0 µM
[6] = biological target: Bromodomain adjacent to zinc finger domain protein 2A (Homo sapiens) (UniProt Q9UIF9); conditions: dose 10.0 µM
[7] = biological target: T1, Bromodomain and PHD finger-containing protein 3 (Homo sapiens); assay: Binding affinity to BRPF3 (unknown origin) assessed as change in enthalpy at 12 uM by Isothermal titration calorimetry
[8] = biological target: KV channel (voltage-gated potassium channel family) (Homo sapiens, UniProt O43525+O43526+O95259+P16389+P17658+P22001+P22459+P22460+P48547+P51787+P56696+Q03721+Q09470+Q12809+Q14003+Q14721+Q16322+Q6PIU1+Q8NCM2+Q8TAE7+Q8TDN1+Q8TDN2+Q92953+Q96KK3+Q96L42+Q96PR1+Q96RP8+Q9BQ31+Q9H252+Q9H3M0+Q9NR82+Q9NS40+Q9NSA2+Q9NZV8+Q9UIX4+Q9UJ96+Q9UK17+Q9ULD8+Q9ULS6+Q9UQ05); assay: Inhibition of KV channel (unknown origin) at 10 uM relative to control; format: protein assay
[9] = biological target: Protein polybromo-1 (Homo sapiens) (UniProt Q86U86); conditions: dose 10.0 µM
[10] = biological target: Adrenergic receptor alpha-2 (Homo sapiens) (UniProt P08913+P18825+P18089); assay: Binding affinity to Alpha 2 receptor (unknown origin) assessed as specific binding at 10 uM relative to control; format: protein assay
[11] = biological target: Bromodomain-containing protein 2 (Homo sapiens) (UniProt P25440); conditions: dose 10.0 µM
[12] = biological target: Histone-lysine N-methyltransferase ASH1L (Homo sapiens) (UniProt Q9NR48); conditions: dose 10.0 µM

Chain of Histone-lysine N-methyltransferase 2A (Homo sapiens) (Q03164 1-2718 limits assumed): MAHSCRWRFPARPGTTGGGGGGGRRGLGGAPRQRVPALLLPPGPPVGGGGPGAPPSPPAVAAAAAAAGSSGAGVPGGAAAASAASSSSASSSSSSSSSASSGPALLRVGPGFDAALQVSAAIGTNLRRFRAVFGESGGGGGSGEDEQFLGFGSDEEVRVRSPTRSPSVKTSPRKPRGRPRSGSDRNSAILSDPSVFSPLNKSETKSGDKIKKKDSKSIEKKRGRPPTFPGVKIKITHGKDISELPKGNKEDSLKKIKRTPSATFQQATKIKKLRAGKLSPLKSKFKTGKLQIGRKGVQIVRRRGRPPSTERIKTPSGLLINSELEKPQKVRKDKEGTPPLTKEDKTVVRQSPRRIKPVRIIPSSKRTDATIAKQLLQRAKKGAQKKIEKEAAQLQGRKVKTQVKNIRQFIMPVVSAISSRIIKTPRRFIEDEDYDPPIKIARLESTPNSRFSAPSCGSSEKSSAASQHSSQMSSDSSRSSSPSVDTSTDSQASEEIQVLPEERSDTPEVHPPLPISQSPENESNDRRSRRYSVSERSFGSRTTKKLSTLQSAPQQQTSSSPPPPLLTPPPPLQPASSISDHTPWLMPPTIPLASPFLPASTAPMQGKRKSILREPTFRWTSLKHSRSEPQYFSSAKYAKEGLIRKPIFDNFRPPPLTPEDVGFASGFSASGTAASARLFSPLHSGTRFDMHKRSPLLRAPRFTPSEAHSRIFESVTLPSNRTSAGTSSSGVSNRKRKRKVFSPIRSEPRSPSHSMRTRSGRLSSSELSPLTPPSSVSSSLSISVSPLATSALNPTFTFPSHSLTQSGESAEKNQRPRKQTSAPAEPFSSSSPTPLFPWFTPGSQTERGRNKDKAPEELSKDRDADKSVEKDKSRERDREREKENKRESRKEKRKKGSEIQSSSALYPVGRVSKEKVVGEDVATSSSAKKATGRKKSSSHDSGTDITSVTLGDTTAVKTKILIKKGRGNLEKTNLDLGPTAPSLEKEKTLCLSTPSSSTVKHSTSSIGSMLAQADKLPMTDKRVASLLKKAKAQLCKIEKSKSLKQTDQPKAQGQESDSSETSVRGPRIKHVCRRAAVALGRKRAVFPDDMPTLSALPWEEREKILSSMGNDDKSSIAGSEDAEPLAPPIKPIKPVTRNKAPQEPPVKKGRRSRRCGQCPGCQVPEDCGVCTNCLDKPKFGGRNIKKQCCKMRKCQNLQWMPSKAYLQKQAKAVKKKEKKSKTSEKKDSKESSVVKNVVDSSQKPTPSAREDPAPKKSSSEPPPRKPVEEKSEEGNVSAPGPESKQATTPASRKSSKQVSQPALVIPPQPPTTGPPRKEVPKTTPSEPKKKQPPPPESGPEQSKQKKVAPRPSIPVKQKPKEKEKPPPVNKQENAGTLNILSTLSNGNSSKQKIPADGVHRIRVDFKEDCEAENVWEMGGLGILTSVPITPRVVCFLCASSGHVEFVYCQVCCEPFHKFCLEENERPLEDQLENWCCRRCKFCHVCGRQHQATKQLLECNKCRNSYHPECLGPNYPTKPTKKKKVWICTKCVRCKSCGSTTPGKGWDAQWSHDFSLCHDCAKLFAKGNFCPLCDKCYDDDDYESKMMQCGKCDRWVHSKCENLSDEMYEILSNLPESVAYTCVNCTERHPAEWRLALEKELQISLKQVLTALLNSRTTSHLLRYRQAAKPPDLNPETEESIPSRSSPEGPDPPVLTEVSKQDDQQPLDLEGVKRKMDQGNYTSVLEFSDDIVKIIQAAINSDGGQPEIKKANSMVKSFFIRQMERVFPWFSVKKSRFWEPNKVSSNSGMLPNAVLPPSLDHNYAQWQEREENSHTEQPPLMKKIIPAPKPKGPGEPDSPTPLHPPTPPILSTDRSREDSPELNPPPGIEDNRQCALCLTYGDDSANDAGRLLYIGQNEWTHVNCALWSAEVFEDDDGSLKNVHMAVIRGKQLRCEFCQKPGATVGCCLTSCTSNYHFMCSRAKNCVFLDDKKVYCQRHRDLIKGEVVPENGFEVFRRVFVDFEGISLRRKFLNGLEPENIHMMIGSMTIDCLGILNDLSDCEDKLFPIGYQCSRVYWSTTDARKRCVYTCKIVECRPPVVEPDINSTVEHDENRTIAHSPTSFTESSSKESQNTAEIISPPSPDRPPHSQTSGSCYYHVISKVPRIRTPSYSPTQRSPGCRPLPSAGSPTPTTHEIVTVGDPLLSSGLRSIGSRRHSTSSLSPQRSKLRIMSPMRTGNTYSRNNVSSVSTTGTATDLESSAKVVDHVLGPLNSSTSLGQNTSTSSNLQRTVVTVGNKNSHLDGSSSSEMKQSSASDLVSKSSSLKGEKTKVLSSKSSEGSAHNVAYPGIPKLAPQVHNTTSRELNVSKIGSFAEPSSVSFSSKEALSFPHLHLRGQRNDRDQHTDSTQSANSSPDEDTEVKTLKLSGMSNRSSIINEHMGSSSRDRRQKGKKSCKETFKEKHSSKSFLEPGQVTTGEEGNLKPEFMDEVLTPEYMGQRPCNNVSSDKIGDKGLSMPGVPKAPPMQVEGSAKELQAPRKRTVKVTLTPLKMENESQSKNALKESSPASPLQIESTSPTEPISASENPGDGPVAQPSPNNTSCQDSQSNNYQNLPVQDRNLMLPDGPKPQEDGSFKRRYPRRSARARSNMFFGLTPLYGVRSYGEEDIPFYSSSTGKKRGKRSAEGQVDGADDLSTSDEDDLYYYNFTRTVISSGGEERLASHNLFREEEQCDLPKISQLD
Chain of Histone-lysine N-methyltransferase 2A (Homo sapiens) (Q03164 2719-3969 limits assumed): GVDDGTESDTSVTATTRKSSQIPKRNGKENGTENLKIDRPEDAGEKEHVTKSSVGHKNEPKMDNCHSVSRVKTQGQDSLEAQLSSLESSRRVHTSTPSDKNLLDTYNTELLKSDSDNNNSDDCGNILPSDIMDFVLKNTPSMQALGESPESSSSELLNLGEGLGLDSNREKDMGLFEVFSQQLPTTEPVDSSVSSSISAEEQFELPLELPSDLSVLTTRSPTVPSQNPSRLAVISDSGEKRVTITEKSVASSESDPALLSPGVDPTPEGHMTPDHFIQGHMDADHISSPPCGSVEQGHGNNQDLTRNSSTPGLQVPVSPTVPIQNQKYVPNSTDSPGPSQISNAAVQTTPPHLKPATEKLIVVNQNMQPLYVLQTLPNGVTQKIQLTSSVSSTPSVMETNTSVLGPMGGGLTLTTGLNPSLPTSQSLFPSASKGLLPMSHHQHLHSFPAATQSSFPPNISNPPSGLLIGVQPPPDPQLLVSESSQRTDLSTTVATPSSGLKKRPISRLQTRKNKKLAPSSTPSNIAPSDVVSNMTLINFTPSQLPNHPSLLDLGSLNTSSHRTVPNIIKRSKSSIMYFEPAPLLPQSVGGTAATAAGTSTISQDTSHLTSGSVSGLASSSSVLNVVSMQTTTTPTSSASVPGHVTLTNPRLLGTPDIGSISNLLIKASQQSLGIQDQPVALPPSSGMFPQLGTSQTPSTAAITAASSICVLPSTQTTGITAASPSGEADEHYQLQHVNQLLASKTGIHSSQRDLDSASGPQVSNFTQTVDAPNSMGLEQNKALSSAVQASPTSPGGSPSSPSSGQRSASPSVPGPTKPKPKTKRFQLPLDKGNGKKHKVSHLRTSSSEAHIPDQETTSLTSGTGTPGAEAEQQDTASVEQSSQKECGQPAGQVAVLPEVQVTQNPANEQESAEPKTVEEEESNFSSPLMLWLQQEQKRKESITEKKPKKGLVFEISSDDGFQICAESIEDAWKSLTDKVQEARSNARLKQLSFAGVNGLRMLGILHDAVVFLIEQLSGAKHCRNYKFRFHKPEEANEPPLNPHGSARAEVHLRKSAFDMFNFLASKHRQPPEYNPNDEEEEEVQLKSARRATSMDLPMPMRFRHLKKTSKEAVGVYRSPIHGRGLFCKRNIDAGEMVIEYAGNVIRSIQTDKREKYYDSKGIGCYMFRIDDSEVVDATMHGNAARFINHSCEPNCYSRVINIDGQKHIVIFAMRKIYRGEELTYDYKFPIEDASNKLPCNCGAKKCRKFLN
Chain of Bromodomain-containing protein 2 (Homo sapiens) (P25440 whole entry, looked up): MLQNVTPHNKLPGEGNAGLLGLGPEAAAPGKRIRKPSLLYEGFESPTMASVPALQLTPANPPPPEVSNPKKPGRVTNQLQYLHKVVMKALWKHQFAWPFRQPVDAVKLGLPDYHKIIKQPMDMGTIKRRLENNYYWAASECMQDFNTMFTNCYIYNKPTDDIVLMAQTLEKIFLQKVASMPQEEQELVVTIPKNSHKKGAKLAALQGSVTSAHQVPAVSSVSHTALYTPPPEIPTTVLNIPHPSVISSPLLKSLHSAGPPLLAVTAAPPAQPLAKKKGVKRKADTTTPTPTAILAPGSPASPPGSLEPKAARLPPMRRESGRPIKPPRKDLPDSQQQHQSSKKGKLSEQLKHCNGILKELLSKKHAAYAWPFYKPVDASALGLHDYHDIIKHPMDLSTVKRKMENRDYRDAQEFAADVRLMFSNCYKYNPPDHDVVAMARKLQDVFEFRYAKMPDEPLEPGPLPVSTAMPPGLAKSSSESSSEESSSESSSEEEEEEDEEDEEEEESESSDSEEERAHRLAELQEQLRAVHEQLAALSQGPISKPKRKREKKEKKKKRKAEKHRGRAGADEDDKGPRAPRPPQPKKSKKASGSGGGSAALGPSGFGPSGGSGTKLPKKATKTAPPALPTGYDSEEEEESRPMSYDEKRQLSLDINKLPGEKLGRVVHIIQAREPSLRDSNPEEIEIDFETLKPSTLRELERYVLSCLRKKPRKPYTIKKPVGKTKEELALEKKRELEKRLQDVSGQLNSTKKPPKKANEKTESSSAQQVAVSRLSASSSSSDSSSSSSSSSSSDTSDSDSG

inhibition [1]: 2%
ΔTm [2]: 0.3 °C
ΔTm [3]: 0.15 °C
TdeltaS [4]: 0.427 kcal/mol
ΔTm [5]: 0.3 °C
ΔTm [6]: 0.2 °C
deltaH [7]: -7.37 kcal/mol
inhibition at 10 µM [8]: -18%
ΔTm [9]: 0.6 °C
Activity [10]: 112%
ΔTm [11]: 0.7 °C
ΔTm [12]: 0.3 °C
Compound: COc1cc2c(cc1NS(=O)(=O)c1ccc(Br)cc1C)n(C)c(=O)n2C

Reference: ChEMBL document CHEMBL5715956, “Selective Targeting of Bromodomains of the Bromodomain-PHD Fingers Family Impairs Osteoclast Differentiation” (ACS Chem Biol, 2017)
